Results: article PMC5769417, “Single- and Multiple-Dose Trials to Determine the Pharmacokinetics, Safety, Tolerability, and Sex Effect of Oral Ginsenoside Compound K in Healthy Chinese Volunteers” (Frontiers in Pharmacology, 2018)
Where “and” joins values, the source holds several entries; their conditions need not be identical. Identical values can stand only once. Like-named read-outs stand apart in the source and are kept apart here.

Assay: Multiple-dose trial, plasma pharmacokinetics
Assay type: in vivo, human
Settings: for MRT last / AUC / concentration at 15 day / half-life / Tmax / AUC(0-inf) / AUC(0-t) / MRT inf / Cmax: human, plasma; for AUC: Day 15, read-out: AUCτ (zero to 24 h); for concentration at 15 day: Day 15, steady state, read-out: Cmin
Procedure: Multiple-dose pharmacokinetics: […] Multiple-dose pharmacokinetics: […] All samples were preserved at −70°C and analyzed with a LC-MS/MS (API 4000 LC-MS/MS, ABI Company, Foster City, CA, USA) at the Institute of Clinical Pharmacology, Central South University (Changsha, China). […] An aqueous solution of a stable internal standard (IS for CK: digoxin, Shijiaoke Biological Technology Co. Ltd., Beijing, China; IS for PPD: coumarin, Sigma-Aldrich, St. Louis, USA) and 1 M phosphate buffer were added to 0.5 ml of thawed sample, and analytical standards and quality control (QC) samples were prepared in the same matrix. All samples were treated with 2 ml of methyl tert-butyl ether (MTBE, CNW technologies GmbH, Duesseldorf, Germany) to precipitate the bulk of plasma proteins. After mechanical shock by mixing for 10 min and a subsequent centrifugation (4,000 rpm, 4°C, 10 min), 1.4 ml of the supernatant was transferred and blow-dried with nitrogen in a water bath at 40°C. Lastly, the residue was dissolved in 100 μl of mobile phase and then was subjected to a mechanical shock by mixing, and centrifuged. The supernatant was subsequently injected into the column for analysis. […] Accuracy and precision of the assay were determined by evaluating the performance of the assay controls. Over the quantification range, the accuracy of the QC samples varied from 85 to 115% and the intra- and inter-assay imprecision was <15%. […] The area under the curve (AUC) from time zero to the last time point (AUClast) and the AUC extrapolated to infinity (AUCinf) were calculated using the linear trapezoidal rule. The slope (elimination rate constant, K) of the terminal phase of the plasma concentration-time profile was determined, using a weighting factor of 1, by the method of least squares (log-linear regression of at least three data points). The t1/2 was estimated as (ln2)/K. […] The apparent volume of distribution (V/F) was equal to (CL/F)/K. The mean residence time (MRT) was calculated as the area under the first moments curve (AUMC) divided by AUC. The dose-normalized PK parameters e.g., Cmax/D and AUClast/D, were obtained by dividing each PK result by the administered dose. The cumulative excretion rate was calculated as the amount of unchanged drug in the urine over a time interval divided by the dose and was expressed as thousand points (‰). On day 15 in the multiple-dose trial, the PK parameters, such as t1/2, CL/F, and V/F at steady state were calculated using the same method as that used for the single-dose trial. In addition, the Tmax at steady state (Tmax,ss), Cmax at steady state (Cmax,ss), and Cmin,ss were obtained from experimental observation after the steady state during the multiple-dose trial. […] The average steady-state drug concentration (Cavg) is calculated as AUCτ/τ, and the fluctuation ratio was calculated as (Cmax,ss − Cmin,ss)/Cavg. The accumulation index was calculated using dosing interval and elimination rate constant as in the following equation: 1/(1 − e^−Kτ).

[1] = 100 mg oral after breakfast, Day 1
[2] = 100 mg qd oral after breakfast, Day 15
[3] = 200 mg oral after breakfast, Day 1
[4] = 200 mg qd oral after breakfast, Day 15
[5] = 400 mg oral after breakfast, Day 1
[6] = 400 mg qd oral after breakfast, Day 15
[7] = both sexes, 100 mg qd oral after breakfast
[8] = both sexes, 200 mg qd oral after breakfast
[9] = both sexes, 400 mg qd oral after breakfast
[10] = both sexes, po, 100 mg, 100 mg oral after breakfast, Day 1
[11] = both sexes, po, 100 mg, 100 mg qd oral after breakfast, Day 15
[12] = both sexes, po, 200 mg, 200 mg oral after breakfast, Day 1
[13] = both sexes, po, 200 mg, 200 mg qd oral after breakfast, Day 15
[14] = both sexes, po, 400 mg, 400 mg oral after breakfast, Day 1
[15] = both sexes, po, 400 mg, 400 mg qd oral after breakfast, Day 15

## CC(C)=CCC[C@](C)(OC1O[C@H](CO)[C@@H](O)[C@H](O)[C@H]1O)[C@H]1CC[C@]2(C)[C@@H]1[C@H](O)C[C@@H]1[C@@]3(C)CC[C@H](O)C(C)(C)[C@@H]3CC[C@]12C (stereo partly drawn) [CK, 20-O-beta-D-glucopyranosyl-20(S)-protopanaxadiol]
[1]
  CL/F: 11.6 ± 3.0 l·h ^−1
  V/F: 402 ± 54 L
[2]
  AUMCτ (zero to 24 h): 60141.5 ± 17696.2 ng·h/mL
  CL/F: 13.4 ± 3.6 l·h ^−1
  Fluctuation: 259.42% and 259.42 ± 48.85%
  V/F: 661 ± 242 L
100 mg qd, 1/(1 − e^−Kτ)
  Accumulation index: 2.62 and 2.62 ± 0.62
[3]
  CL/F: 9.6 ± 3.1 l·h ^−1
  V/F: 326 ± 137 L
[4]
  AUMCτ (zero to 24 h): 179177.1 ± 49122.9 ng·h/mL
  CL/F: 8.6 ± 2.5 l·h ^−1
  Fluctuation: 289.25% and 289.25 ± 35.75%
  V/F: 455 ± 152 L
200 mg qd, 1/(1 − e^−Kτ)
  Accumulation index: 2.78 and 2.78 ± 0.73
[5]
  CL/F: 9.4 ± 2.4 l·h ^−1
  V/F: 358 ± 118 L
[6]
  AUMCτ (zero to 24 h): 306621.5 ± 78711.0 ng·h/mL
  CL/F: 10.3 ± 3.0 l·h ^−1
  Fluctuation: 273.98% and 273.98 ± 37.16%
  V/F: 514 ± 188 L
400 mg qd, 1/(1 − e^−Kτ)
  Accumulation index: 2.60 and 2.60 ± 0.31
100–400 mg qd
  accumulation index range: 2.60–2.78
Day 1, Female
  AUCinf/D, dose-normalized AUCinf: 116.58 ± 28.07^* h·ng·ml^−1·mg^−1
  AUClast/D, dose-normalized AUClast: 114.23 ± 27.97 ng·h/mL/mg
  Cmax/D, dose-normalized Cmax: 14.49 ± 4.07 ng/mL/mg
Day 1, Male
  AUCinf/D, dose-normalized AUCinf: 94.22 ± 24.54 ng·h/mL/mg
  AUClast/D, dose-normalized AUClast: 92.27 ± 24.00 ng·h/mL/mg
  Cmax/D, dose-normalized Cmax: 11.00 ± 4.25 ng/mL/mg
Day 1, all subjects
  AUCinf/D, dose-normalized AUCinf: 105.41 ± 28.29 ng·h/mL/mg
  AUClast/D, dose-normalized AUClast: 103.25 ± 27.94 ng·h/mL/mg
  Cmax/D, dose-normalized Cmax: 12.74 ± 4.46 ng/mL/mg
Day 1, between sexes
  AUCinf/D, GMR (95% CI): 1.25 (1.03–1.51)
  AUClast/D, GMR (95% CI): 1.25 (1.03–1.51)
  Cmax/D, GMR (95% CI): 1.37 (1.04–1.80)
Day 1 vs Day 15
  AUCinf/D, GMR (95% CI): 0.75 (0.64–0.87)
  AUClast/D, GMR (95% CI): 0.79 (0.67–0.91)
  Cmax/D, GMR (95% CI): 1.00 (0.82–1.22)
Day 15, Female
  AUCinf/D, dose-normalized AUCinf: 153.33 ± 30.98 ng·h/mL/mg
  AUClast/D, dose-normalized AUClast: 143.45 ± 29.33 ng·h/mL/mg
  Cmax/D, dose-normalized Cmax: 14.25 ± 3.38 ng/mL/mg
Day 15, Male
  AUCinf/D, dose-normalized AUCinf: 132.87 ± 52.60 ng·h/mL/mg
  AUClast/D, dose-normalized AUClast: 123.74 ± 47.85 ng·h/mL/mg
  Cmax/D, dose-normalized Cmax: 11.18 ± 5.19 ng/mL/mg
Day 15, all subjects
  AUCinf/D, dose-normalized AUCinf: 143.10 ± 43.67 ng·h/mL/mg
  AUClast/D, dose-normalized AUClast: 133.59 ± 40.26 ng·h/mL/mg
  Cmax/D, dose-normalized Cmax: 12.71 ± 4.58 ng/mL/mg
Day 15, between sexes
  AUCinf/D, GMR (95% CI): 1.21 (0.96–1.53)
  AUClast/D, GMR (95% CI): 1.21 (0.96–1.52)
  Cmax/D, GMR (95% CI): 1.36 (1.04–1.76)
Both sexes, 100 mg oral after breakfast, Day 1
  MRT last: 12.2 ± 1.4 h
[7]
  AUC: 8000 ± 2320 ng·h/mL
  concentration at 15 day: 333 ± 96.7 ng/mL
Both sexes, 200 mg oral after breakfast, Day 1
  MRT last: 12.6 ± 1.6 h
[8]
  AUC: 24700 ± 6290 ng·h/mL
  concentration at 15 day: 1030 ± 262 ng/mL
Both sexes, 400 mg oral after breakfast, Day 1
  MRT last: 12.5 ± 1 h
[9]
  AUC: 41400 ± 10400 ng·h/mL
  concentration at 15 day: 1730 ± 432 ng/mL
Both sexes, oral, 400 mg, Day 1, 100, 200 or 400 mg, read-out: mean t1/2 across the dose groups
  half-life: 23.4 to 26.1 h
Both sexes, oral, 400 mg, Day 1, 100, 200 or 400 mg, read-out: median Tmax across the dose groups
  Tmax: 2.5 to 3 h
Both sexes, oral, Day 1, all subjects, read-out: Tmax, median (range)
  Tmax: 3 h
Both sexes, oral, Day 1, all subjects, read-out: t1/2 (converted)
  half-life: 24.9 ± 5.8 h
Both sexes, oral, Day 15, all subjects, read-out: Tmax, median (range)
  Tmax: 3.5 h
Both sexes, oral, Day 15, all subjects, read-out: t1/2 (converted)
  half-life: 35.3 ± 9.6 h
[10]
  AUC(0-inf): 9070 ± 2060 ng·h/mL
  AUC(0-t): 8880 ± 1990 ng·h/mL
  MRT inf: 14.6 ± 2.1 h
Both sexes, po, 100 mg, 100 mg oral after breakfast, Day 1, read-out: Cmax
  Cmax: 1120 ± 411 ng/mL
Both sexes, po, 100 mg, 100 mg oral after breakfast, Day 1, read-out: t1/2 (converted)
  half-life: 25.2 ± 5.6 h
[11]
  AUC(0-inf): 11100 ± 3230 ng·h/mL
  AUC(0-t): 10400 ± 3010 ng·h/mL
  MRT inf: 17 ± 2.2 h
Both sexes, po, 100 mg, 100 mg qd oral after breakfast, Day 15, read-out: Cmax
  Cmax: 934 ± 323 ng/mL
Both sexes, po, 100 mg, 100 mg qd oral after breakfast, Day 15, read-out: Tmax, median (range)
  Tmax: 3.8 h
Both sexes, po, 100 mg, 100 mg qd oral after breakfast, Day 15, read-out: t1/2 (converted)
  half-life: 34.6 ± 10.5 h
[12]
  AUC(0-inf): 22700 ± 6350 ng·h/mL
  AUC(0-t): 22300 ± 6320 ng·h/mL
  MRT inf: 14.9 ± 2 h
Both sexes, po, 200 mg, 200 mg oral after breakfast, Day 1, read-out: Cmax
  Cmax: 2880 ± 984 ng/mL
Both sexes, po, 200 mg, 200 mg oral after breakfast, Day 1, read-out: Tmax, median (range)
  Tmax: 3 h
Both sexes, po, 200 mg, 200 mg oral after breakfast, Day 1, read-out: t1/2 (converted)
  half-life: 23.4 ± 7.9 h
[13]
  AUC(0-inf): 34000 ± 9060 ng·h/mL
  AUC(0-t): 31600 ± 8130 ng·h/mL
  MRT inf: 16.1 ± 1.6 h
Both sexes, po, 200 mg, 200 mg qd oral after breakfast, Day 15, read-out: Cmax
  Cmax: 3180 ± 877 ng/mL
Both sexes, po, 200 mg, 200 mg qd oral after breakfast, Day 15, read-out: Tmax, median (range)
  Tmax: 3.5 h
Both sexes, po, 200 mg, 200 mg qd oral after breakfast, Day 15, read-out: t1/2 (converted)
  half-life: 37.3 ± 12.3 h
[14]
  AUC(0-inf): 44900 ± 11200 ng·h/mL
  AUC(0-t): 43900 ± 11100 ng·h/mL
  MRT inf: 15.2 ± 1.5 h
Both sexes, po, 400 mg, 400 mg oral after breakfast, Day 1, read-out: Cmax
  Cmax: 5060 ± 1650 ng/mL
Both sexes, po, 400 mg, 400 mg oral after breakfast, Day 1, read-out: Tmax, median (range)
  Tmax: 3 h
Both sexes, po, 400 mg, 400 mg oral after breakfast, Day 1, read-out: t1/2 (converted)
  half-life: 26.1 ± 3.3 h
[15]
  AUC(0-inf): 59200 ± 13300 ng·h/mL
  AUC(0-t): 55200 ± 12800 ng·h/mL
  MRT inf: 17.9 ± 1.8 h
Both sexes, po, 400 mg, 400 mg qd oral after breakfast, Day 15, read-out: Cmax
  Cmax: 5170 ± 1500 ng/mL
Both sexes, po, 400 mg, 400 mg qd oral after breakfast, Day 15, read-out: t1/2 (converted)
  half-life: 34.2 ± 5.3 h
female, oral, Day 1, Female, read-out: Tmax, median (range)
  Tmax: 3 h
female, oral, Day 1, Female, read-out: t1/2 (converted)
  half-life: 26.4 ± 6.2 h
female, oral, Day 15, Female, read-out: Tmax, median (range)
  Tmax: 3.5 h
female, oral, Day 15, Female, read-out: t1/2 (converted)
  half-life: 36.3 ± 1.05 h
male, oral, Day 1, Male, read-out: Tmax, median (range)
  Tmax: 3 h
male, oral, Day 1, Male, read-out: t1/2 (converted)
  half-life: 23.3 ± 5.2 h
male, oral, Day 15, Male, read-out: Tmax, median (range)
  Tmax: 3.5 h
male, oral, Day 15, Male, read-out: t1/2 (converted)
  half-life: 34.3 ± 9.8 h
Once daily
  steady state reached: after the 7th administration
overall
  Accumulation index: ~2.66
